Experimental data reported in PMC11355195 (Life, 2024).

Biological target: T1, COX-1 (Ovis aries, UniProt P05979)
T1 construct: The COX-1 enzyme was produced from ram seminal vesicles; purchased Cayman Chemical Company, Ann Arbor, MI, USA; host or cells: ram seminal vesicles (tissue)
T1 sequence (P05979 25-600): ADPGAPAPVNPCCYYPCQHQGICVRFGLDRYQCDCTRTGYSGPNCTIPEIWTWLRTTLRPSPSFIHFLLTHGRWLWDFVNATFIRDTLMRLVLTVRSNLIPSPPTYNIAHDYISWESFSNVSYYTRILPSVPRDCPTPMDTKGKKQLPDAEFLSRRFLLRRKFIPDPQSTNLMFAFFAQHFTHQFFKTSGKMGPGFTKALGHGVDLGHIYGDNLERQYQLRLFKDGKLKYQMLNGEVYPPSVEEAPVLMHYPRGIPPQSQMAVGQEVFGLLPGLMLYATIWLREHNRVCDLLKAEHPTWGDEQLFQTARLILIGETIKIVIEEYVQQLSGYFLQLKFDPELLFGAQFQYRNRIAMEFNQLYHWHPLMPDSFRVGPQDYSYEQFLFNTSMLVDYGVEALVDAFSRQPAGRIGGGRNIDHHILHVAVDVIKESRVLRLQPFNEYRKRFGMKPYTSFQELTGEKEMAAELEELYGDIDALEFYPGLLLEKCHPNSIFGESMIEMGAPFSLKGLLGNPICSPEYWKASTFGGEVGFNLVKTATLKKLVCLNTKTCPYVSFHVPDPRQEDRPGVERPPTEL
Experiment: COX-1-catalyzed prostaglandin production inhibition
Assay type: biochemical, ram
Details: mean ± standard deviation, three replicas; read-out: COX-1 inhibition IC50 (converted)
Description: The COX inhibitory effects of the substances were examined using a COX-1/COX-2-catalyzed prostaglandin production test, using a modified approach by Futaki et al.. The chemicals were dissolved in 4% DMSO to a final concentration of 100 µg/mL.
In this test, one unit of COX-1 or COX-2 enzyme was suspended in a 0.1 M Tris-HCl buffer (pH 7.5) containing hematin ([…]) and phenol (2 mM) as cofactors. The COX-1 enzyme was produced from ram seminal vesicles, while COX-2 was taken from sheep placenta with a purity of 70% (both from Cayman Chemical Company, Ann Arbor, MI, USA). The reaction mixture was preincubated with either the solvent vehicle (4% DMSO) or the test solution for 2 min at 37 °C. […] Arachidonic acid, tagged with radioactive carbon ([1–14C]), serves as a substrate for the COX enzymes. The mixture was then incubated for an additional 2 min at 37 °C. […] The organic solvent phase was removed, and the PGE2 level in the remaining aqueous phase was quantified using a radioimmunoassay with a liquid scintillation counter, which measures the radioactivity (disintegrations per minute, DPM) of the [1–14C]-labeled PGE2. The percentage inhibition of COX-catalyzed prostaglandin production by the test compounds was estimated by comparing the radioactivity of the samples with the solvent vehicle controls. […]

Cc1ccc(C(C)C)c(O)c1 [Thymol, 2-isopropyl-5-methylphenol]
IC50: 198 µM
